Literature values as cited in publication PMC4982639, “Structural Basis of Microtubule Destabilization by Potent Auristatin Anti-Mitotics” (PLoS ONE, 2016).

What was measured:
free tubulin = test system: free tubulin
From the text: (§1) Low resolution crystal structures of dolastatin 10 derivatives in complex with tubulin have further confirmed the region of binding for the auristatins, which overlaps w ...

tubulin = conditions: compared with vinca alkaloids, free tubulin
From the text: as §1

tubulin dimers = conditions: in vitro
From the text: This model of curvature between dimers is supported in vitro by the formation of curved spiral or r ...

cellular assays = conditions: stated in the conclusions as background; no reference given
[1] = test system: cells expressing the CD30 epitope; conditions: released in the cytosol from the internalized ADC Brentuximab vedotin
From the text: The mechanisms by which these molecules act on tubulin dimers include the induction of curved aggregates and inhibition of nucleotide exchange. MMAE comprises the four amino acids monomethylvaline (MeVal), valine (Val), dolaisoleuine (Dil) and dolaproine (Dap), and the carboxy-terminal amine norephedrine (Fig 1A). This agent provides the cytotoxic activity for the ADC Brentuximab vedotin, currently designated for relapsed Hodgkin lymphoma and anaplastic large cell lymphoma. Bren ...

Molecule	formation of curved aggregates (tubulin dimers)	potency in cellular assays (cellular assays)	other results
dolastatin 10	–	–	type of inhibition of vinca alkaloids (free tubulin): non-competitive inhibitor of the vinca alkaloids; inhibition of nucleotide exchange (tubulin): much greater inhibition of nucleotide exchange
CC[C@]1(O)C[C@@H]2CN(CCc3c([nH]c4ccccc34)[C@@](C(=O)OC)(c3cc4c(cc3OC)N(C)[C@H]3[C@@](O)(C(=O)OC)[C@H](OC(C)=O)[C@]5(CC)C=CCN6CC[C@]43[C@@H]65)C2)C1 [vinblastine]	formation of curved spiral or ring shaped aggregates	–	–
monomethyl auristatin E [MMAE]	–	nano- and picomolar potency	cellular effect of released MMAE [1]: mitotic arrest and apoptosis
dolastatin	formation of curved spiral or ring shaped aggregates	–	–
cryptophycin	formation of curved spiral or ring shaped aggregates	–	–
monomethyl auristatin F [MMAF]	–	nano- and picomolar potency	–
